Experimental data from US6828439B1, “Compounds, composition, and methods for photodynamic therapy” (Advanced Research and Technology Institute, Inc., priority 1999, dated 2004).
Entries after “also recorded” stand apart in the source; their conditions may differ.

Legend:
[1] = Anaerobic photolysis in acetonitrile at 345 nm and 455 nm monitored by UV/Vis spectrophotometry; assay type: physicochemical; settings: for kobs of photolysis (first order) / Photolysis reactivity of free ligand: acetonitrile; for kobs of photolysis (first order): anaerobic
Procedure: FIG. 7 depicts electronic absorption profiles of anaerobic photolyses of […] acetonitrile solutions of compound 5 at: (a) 345 nm; and (b) 455 nm.
Although the CT excited states appeared to satisfy the energy requirement, it was unknown if sufficient excited state lifetime existed to drive photodecomposition of the ligand. […] In both cases, significant photobleaching was observed, consistent with formation of Fe(II) in solution. This observation was further supported by the reemergence of color following aerial oxidation.
This can be attributed to the greater extinction coefficient at 345 nm (ε=9000 M^−1cm^−1) relative to 455 nm (ε=5450 M^−1cm^−1), and the simultaneous excitation of the LMCT and n-π* transitions of the Fe(III) compound, both of which lead to denitrogenation.
To investigate this dual state hypothesis, identical photolyses were carried out on solutions of 4 in acetonitrile.

pUC 118 plasmid DNA = assay: Photoinduced cleavage of pUC 118 plasmid DNA by compound 5, agarose gel electrophoresis (Example IV); assay type: biochemical
Procedure: FIG. 8 illustrates the photoinduced DNA-cleavage of 30 μM/bp of pUC 118 plasmid DNA by 300 μM of compound 5 following 400 nm photolysis for 12 hours at 20° C. pursuant to 2% agarose gel electrophoresis.
Cleavage ability was determined by its effectiveness in converting circular supercoiled DNA (form I) to circular relaxed DNA (form II) and linear DNA (form III). FIG. 8 illustrates the agarose gel electrophoresis of photolysis products of 300 μM 5 in the presence of pUC 118 plasmid DNA (30 μM/bp). Solutions were irradiated for 12 hours in 1:9 DMSO:Tris buffer (20 mM, pH 7.55) at 400 nm. Photolyses were performed at 400 NM (rather than 455 NM) due to a soluatochronic blue shift in the optical absorption spectrum.

[2] = N2 extrusion on photolysis, headspace GC/MS; assay type: physicochemical; settings: degassed benzonitrile under argon, average of 4 trials
Procedure: To correlate the observed reactivity with N2 extrusion, a series of wavelength dependent photolyses were performed on 800 μL solutions of 5 under argon in degassed benzonitrile. From headspace GC/MS analysis, N2 production was gauged by comparison of the N2/O2 ratios above the photolyzed samples relative to unphotolyzed controls. […] Taken together, these experiments provide compelling evidence that the overall strategy to induce radical formation from CT excited states is indeed operative.

pUC118 = assay: Photochemical DNA cleavage by Cu(II) diazo complex, agarose gel (Example VI); assay type: biochemical; settings: 25 μm, 20° C.; for DNA forms in thermal and photochemical control studies: 1 hour incubation or 455 nm light, lanes 3-11
Procedure: FIG. 10 illustrates DNA-cleavage of 50 μM pUC 118 plasmid DNA by bis(9-diazo-4,5-diazafluorene)copper(II) nitrate following 455 nm photolysis for 1 hour at 20° C. pursuant to 2% agarose gel electrophoresis.
FIG. 10 illustrates the DNA cleavage of 50 μM pUC118 by this compound following 455 nm photolysis for 1 hour at 20° C. (agarose gel, 2%).
Three forms of […] plasmid DNA were prepared for use in the […] assay. Form I was supercoiled plasmid. Form II was nicked plasmid. Form III was linear plasmid. The three plasmid forms were subjected to 11 lanes of varying conditions. Lane 1 pertained to the DNA forms alone. Lane 2 involved an EcoR1 digest of the DNA, which was used as a marker. In lane 3, the DNA was subjected for 1 hour to light at a wavelength of 455 nm. In lane 4, the DNA was subjected to 25 μm Cu(II) (diazafluorenone)2^2+ for 1 hour incubation. In lane 5, the DNA was subjected to 25 μm Cu(II) (diazafluorenone)2^2+ in the presence of light at a wavelength of 455 nm for 1 hour. Lane 6 subjected the DNA to 25 μm of 9-diazafluorene in the presence of light at a wavelength of 455 nm for 1 hour. In lane 7, the DNA was subjected to 25 μm 9-diazo-4,5-diazafluorene in the presence of light at a wavelength of 455 nm for 1 hour. In lane 8, the DNA was subjected to 25 μm bis(9-diazo-4,5-diazafluorene)copper(II) nitrate rapid quench. In lane 9, the DNA was subjected to 25 μm bis(9-diazo-4,5-diazafluorene)copper(II) nitrate for 1 hour incubation. In lane 10, the DNA was subjected to 25 μm bis(9-diazo-4,5-diazafluorene)copper(II) nitrate for 1 hour incubation at 37° C. In lane 11, the DNA was subjected to 25 μm bis(9-diazo-4,5-diazafluorene)copper(II) nitrate for 1 hour at a wavelength of 455 nm.

[3] = Thermal reactivity of Pd metalloenediynes; assay type: physicochemical; settings: room temperature
Procedure: The thermal reactivity of the complex was as follows. […] The reaction was followed by ^31p NMR analysis. The chemical shift of the complex was −5.71 ppm while that of the free ligand was −32.1 ppm. After 11 hours, there was evidence of the complex, free ligand, and 2 other resonances at −10.6 ppm and 25.4 ppm. […] A shift downfield was expected for the cyclized product and this could help explain the resonance at 25.4 ppm. […] What may have happened is that a ligand dissociated from the metal after cyclizing (−10.6 ppm) and then it reassociated with the metal (25.5 ppm). From the crystal structure, the environment around the metal was strained as is evident in the Pd—P—C bending. Additionally, the bite-angle of the resulting cyclized product, 1,2-bis(diphenylphosphino)naphthalene, would be smaller than that which would be required for tetrahedral geometry. This dissociation/reassociation may be slow enough to be detected on the NMR timescale.
Although crystallographic structural characterization of Pd(dppeb)Cl2 is unavailable, the d^8 Pd2^+ geometry is likely square planar with P—Pd—P angles near 90° which would reduce the alkyne carbon termini distances and lower the thermal barrier to cyclization. […]

HIV = settings: human, in vivo; cited from earlier work
[4] = 95° C. for several days; cited from earlier work
[5] = literature values; cited from earlier work

## O=c1c2ccccc2nnn1[O-].O=c1c2ccccc2nnn1[O-].O=c1c2ccccc2nnn1[O-].[Fe+3] [Compound 5, Fe(3-Hydroxy-1,2,3-benzotriazine-4(3H)-one)3]
[1]
  Wavelength up to which reactivity was demonstrated: up to 515 nm
[1]; 345 nm
  kobs of photolysis (first order): 0.093 min⁻¹
[1]; 455 nm
  kobs of photolysis (first order): 0.004 min⁻¹
pUC 118 plasmid DNA; 300 μM 5, pUC 118 30 μM/bp, 400 nm, 12 hours, 1:9 DMSO:Tris buffer (20 mM, pH 7.55), lane 3
  DNA forms produced by photolysis (form I supercoiled, form II nicked, form III linear): a mixture of linear and nicked forms
pUC 118 plasmid DNA; similar thermal incubation without light, lane 4
  DNA cleavage on thermal incubation: no DNA cleavage
[2]; 345 nm
  Increased N2 content versus unphotolyzed controls: 112%
[2]; 455 nm
  Increased N2 content versus unphotolyzed controls: 9.7%

## O=[N+]([O-])[O-].O=[N+]([O-])[O-].[Cu+2].[N-]=[N+]=C1c2cccnc2-c2ncccc21.[N-]=[N+]=C1c2cccnc2-c2ncccc21 [bis(9-diazo-4,5-diazafluorene)copper(II) nitrate]
pUC118
  DNA forms in thermal and photochemical control studies: very small and comparable amounts of the nicked form
pUC118; 455 nm, 1 hour, 10 mM Tris pH 7.6, 50 μM pUC118, lane 11
  DNA forms after photolysis: predominantly nicked DNA with a moderate amount of the linear form

## C(#CP(c1ccccc1)c1ccccc1)c1ccccc1C#CP(c1ccccc1)c1ccccc1.C(#CP(c1ccccc1)c1ccccc1)c1ccccc1C#CP(c1ccccc1)c1ccccc1.[Pd] [Pd(dppeb)2]
[3]
  Thermal stability: stable at room temperature

## Nc1ccn([C@H]2CC[C@@H](CO)O2)c(=O)n1 [ddC, 2′3′-dideoxycytidine]
HIV
  Virustatic range in most patients: 0.005-0.25 mg/kg body weight

## [N-]=[N+]=C1c2cccnc2-c2ncccc21 [9-diazo-4,5-diazafluorene, reference compound]
pUC118
  DNA forms in thermal and photochemical control studies: very small and comparable amounts of the nicked form; also recorded: did not exhibit any preferential thermal or photochemical DNA cleavage

## O=c1c2ccccc2nnn1O [Compound 4, 3-Hydroxy-1,2,3-benzotriazine-4(3H)-one, reference compound]
[1]; 345 nm
  Photolysis reactivity of free ligand: noticeably reduced reaction rate
[1]; 455 nm
  Photolysis reactivity of free ligand: no reactivity
pUC 118 plasmid DNA; 900 μM free ligand, 400 nm, 12 hours, lane 6
  DNA forms produced by photolysis of free ligand: a small amount of form II

## C(#CP(c1ccccc1)c1ccccc1)c1ccccc1C#CP(c1ccccc1)c1ccccc1
[4]
  Thermal stability in the presence of a hydrogen donor: stable
[5]
  Bergman cyclization temperature reported in the literature: 243 °C
